One data set concerns Candida albicans. In words: Inhibition zone, agar plate diffusion. The class given is cell-based. The conditions noted are these: Ca, mm ± standard deviation, sample at 0.5 mg/mL, read-out: Inhibition zone (IZ). Here is the method: (§1) Antimicrobial activities of the newly formed Schiff bases (6a–d, 7a–d, 8a–d, and 9a–d) and reference drugs were evaluated against three Gram-positive, three Gram-negative, and two fungi strain at Al-Azhar University, Cairo, Egypt. The inhibition zones (IZ, in mm ± standard deviation) and the minimal inhibitory concentration (MIC) (μg/mL) were determined by the conventional paper disk diffusion method.
(§2) In Vitro Antimicrobial Activities
(§3) The antimicrobial activities inhibition zone (IZ, mm±standard deviation) of pyrazole Schiff bases ( 6a-d , 7a-d, 8a-d and 9a-d ) was measurement according to the agar plate diffusion method. Briefly, 100 µl of the […]
(§4) […] of each sample (at 0.5 mg/mL) was added to each well (10 mm diameter holes cut in the agar gel). The plates were incubated for 24 h at 37 °C (for bacteria and yeast) and for 72 h at 27 °C (for filamentous fungi), each test was repeated three times. After incubation, the microorganism's growth was observed. […]
(§5) drugs while Amphotericin B was used as standard antifungal drug. The resulting inhibition zone diameters were measured in millimeters and used as criterion for the antimicrobial activity. Solvent controls (DMSO) were included in every experiment as negative controls. DMSO was used for dissolving […]
(§6) the tested microorganisms. […]
(§7) Bacteria were grown on nutrient agar medium, while fungi and yeast were grown on Sabouraud agar medium. […]

The subject of another data set is Fusarium oxysporum. In words: Inhibition zone, agar plate diffusion. It counts as cell-based. To be noted: Fo, mm ± standard deviation, sample at 0.5 mg/mL, read-out: Inhibition zone (IZ). Here is the method:
as §1, §2, §3, §4, §5, §6, §7

A further data set concerns Staphylococcus aureus. In words: Inhibition zone, agar plate diffusion. It counts as cell-based. The conditions noted are these: Sa, mm ± standard deviation, sample at 0.5 mg/mL, read-out: Inhibition zone (IZ). Here is the method: as §1, §2, §3, §4, §5, §6, §7
A further data set concerns Salmonella typhi. In words: Inhibition zone, agar plate diffusion. It counts as cell-based. To be noted: Salmonella enterica, St, mm ± standard deviation, sample at 0.5 mg/mL, read-out: Inhibition zone (IZ). Here is the method:
as §1, §2, §3, §4, §5, §6, §7

In another data set the test system is Bacillus subtilis. In words: Inhibition zone, agar plate diffusion. It counts as cell-based. To be noted: Bs, mm ± standard deviation, sample at 0.5 mg/mL, read-out: Inhibition zone (IZ). Here is the method: as §1, §2, §3, §4, §5, §6
The subject of another data set is Escherichia coli. The experiment in a line: Inhibition zone, agar plate diffusion. The class given is cell-based. The conditions noted are these: Ec, mm ± standard deviation, sample at 0.5 mg/mL, read-out: Inhibition zone (IZ). Here is the method:
as §1, §2, §3, §4, §5, §6

Another data set relates to Enterococcus faecalis. The experiment in a line: Inhibition zone, agar plate diffusion. It counts as cell-based. To be noted: Ef, mm ± standard deviation, sample at 0.5 mg/mL, read-out: Inhibition zone (IZ). Here is the method: as §1, §2, §3, §4, §5, §6
The subject of another data set is Pseudomonas aeruginosa. The experiment in a line: Inhibition zone, agar plate diffusion. The class given is cell-based. The conditions noted are these: Pa, mm ± standard deviation, sample at 0.5 mg/mL, read-out: Inhibition zone (IZ). Here is the method: as §1, §2, §3, §4, §5, §6

Structures are written as SMILES.

Broadly, the melting point is the temperature of the solid-liquid transition. Regarding `COc1ccc(Nc2n[nH]c(N=Cc3c(C)nn(-c4ccccc4)c3Cl)c2C(N)=O)cc1` [7a, 5-((5-Chloro-3-methyl-1-phenyl-1H-pyrazol-4-yl)methyleneamino)-3-(p-methoxyphenylamino)-1H-pyrazole-4-carboxamide], the melting point is 270 to 272 °C. Moreover, the zone of inhibition at 500 µg/mL with Candida albicans is 13 ± 0.35 mm. The zone of inhibition at 500 µg/mL in the data set with Fusarium oxysporum is 15 ± 0.3 mm. For the same compound, the zone of inhibition at 500 µg/mL in the data set on Staphylococcus aureus turned out to be 19 ± 0.31 mm. Further, the zone of inhibition at 500 µg/mL in the data set with Salmonella typhi stood at 18 ± 0.16 mm. For the same compound, the zone of inhibition at 500 µg/mL in the data set on Bacillus subtilis was 20 ± 0.4 mm. Also, in the data set on Escherichia coli, the zone of inhibition at 500 µg/mL worked out at 18 ± 0.2 mm. The zone of inhibition at 500 µg/mL in the data set with Enterococcus faecalis worked out at 21 ± 0.11 mm. Besides, the zone of inhibition at 500 µg/mL in the data set with Pseudomonas aeruginosa was determined as 20 ± 0.15 mm.
